ChEMBL document CHEMBL1157462, “Sodium late current blockers in ischemia reperfusion: is the bullet magic?” (J Med Chem, 2008)
The source made the active and inactive calls. The calls are words filed in the database; no cut-off is given here.

Legend:
Cardiac atrium [1] = experiment: tissue or blood; conditions: Rattus norvegicus, Wistar, 0.25 h, read-out: INH
Description: (§1) Inhibition of veratridine-induced diastolic contracture in Wistar rat atrium assessed as inhibition of systolic isometric tension of at 1 uM 15 mins

[2] = target: T1, Sodium channel protein type 5 subunit alpha (Homo sapiens, UniProt Q14524); experiment: Inhibition of human sodium Nav1.5 channel expressed in HEK293 cells assessed as inhibition of veratridine-induced late sodium current elicited at -30 mV from holding potential of -110 mV at 10 uM by patch clamp technique; format: cell-based; conditions: for inhibition at 10 µM: HEK293, human
[3] = target: T1, Sodium channel protein type 5 subunit alpha; experiment: Inhibition of human sodium Nav1.5 channel expressed in HEK293 cells assessed as inhibition of veratridine-induced late sodium current elicited at -30 mV from holding potential of -90 mV at 10 uM by patch clamp technique; format: cell-based; conditions: for inhibition at 10 µM: HEK293, human
Heart = experiment: Inhibition of global ischemia-induced diastolic contracture in isolated Langendorff perfused guinea pig model heart at 1 uM after 15 mins; format: functional, Cavia porcellus
[4] = target: T1, Sodium channel protein type 5 subunit alpha; experiment: Inhibition of sodium Nav1.5 channel assessed as inhibition of late sodium current elicited at -30 mV from holding potential of -110 mV
[5] = target: T1, Sodium channel protein type 5 subunit alpha; experiment: Inhibition of sodium Nav1.5 channel assessed as inhibition of late sodium current elicited at -30 mV from holding potential of -90 mV
Oryctolagus cuniculus [6] = experiment: Reversal of ischemia-induced ST segment elevation in iv dosed anesthetized New Zealand white rabbit; format: functional
Oryctolagus cuniculus [7] = experiment: Reversal of ischemia-induced ST segment elevation in po dosed anesthetized New Zealand white rabbit; format: functional
Oryctolagus cuniculus [8] = experiment: Ratio of ED50 for reversal of ischemia-induced ST segment elevation in po dosed New Zealand white rabbit to ED50 for reversal of ischemia-induced ST segment elevation iv dosed New Zealand white rabbit; format: functional
Oryctolagus cuniculus [9] = experiment: Effect on heart rate in anesthetized New Zealand white rabbit myocardial ischemia model assessed as beats per minute at 0.04 mg/kg; format: functional
Oryctolagus cuniculus [10] = experiment: Effect on heart rate in anesthetized New Zealand white rabbit myocardial ischemia model assessed as beats per minute at 0.16 mg/kg; format: functional
Oryctolagus cuniculus [11] = experiment: Effect on heart rate in anesthetized New Zealand white rabbit myocardial ischemia model assessed as beats per minute at 0.63 mg/kg; format: functional
Oryctolagus cuniculus [12] = experiment: Effect on heart rate in anesthetized New Zealand white rabbit myocardial ischemia model assessed as beats per minute at 2.5 mg/kg; format: functional
Oryctolagus cuniculus [13] = experiment: Effect on heart rate in anesthetized New Zealand white rabbit myocardial ischemia model assessed as beats per minute at 0.01 mg/kg; format: functional
Oryctolagus cuniculus [14] = experiment: Reversal of ischemia-induced ST segment elevation in anesthetized New Zealand white rabbit at 2.5 mg/kg, iv; format: functional, organism-based; parameters: dose 2.5 mg/kg
Cardiac atrium [15] = conditions: Rattus norvegicus, Wistar, 1 uM
Description: as §1

T1 sequence (Q14524 whole entry): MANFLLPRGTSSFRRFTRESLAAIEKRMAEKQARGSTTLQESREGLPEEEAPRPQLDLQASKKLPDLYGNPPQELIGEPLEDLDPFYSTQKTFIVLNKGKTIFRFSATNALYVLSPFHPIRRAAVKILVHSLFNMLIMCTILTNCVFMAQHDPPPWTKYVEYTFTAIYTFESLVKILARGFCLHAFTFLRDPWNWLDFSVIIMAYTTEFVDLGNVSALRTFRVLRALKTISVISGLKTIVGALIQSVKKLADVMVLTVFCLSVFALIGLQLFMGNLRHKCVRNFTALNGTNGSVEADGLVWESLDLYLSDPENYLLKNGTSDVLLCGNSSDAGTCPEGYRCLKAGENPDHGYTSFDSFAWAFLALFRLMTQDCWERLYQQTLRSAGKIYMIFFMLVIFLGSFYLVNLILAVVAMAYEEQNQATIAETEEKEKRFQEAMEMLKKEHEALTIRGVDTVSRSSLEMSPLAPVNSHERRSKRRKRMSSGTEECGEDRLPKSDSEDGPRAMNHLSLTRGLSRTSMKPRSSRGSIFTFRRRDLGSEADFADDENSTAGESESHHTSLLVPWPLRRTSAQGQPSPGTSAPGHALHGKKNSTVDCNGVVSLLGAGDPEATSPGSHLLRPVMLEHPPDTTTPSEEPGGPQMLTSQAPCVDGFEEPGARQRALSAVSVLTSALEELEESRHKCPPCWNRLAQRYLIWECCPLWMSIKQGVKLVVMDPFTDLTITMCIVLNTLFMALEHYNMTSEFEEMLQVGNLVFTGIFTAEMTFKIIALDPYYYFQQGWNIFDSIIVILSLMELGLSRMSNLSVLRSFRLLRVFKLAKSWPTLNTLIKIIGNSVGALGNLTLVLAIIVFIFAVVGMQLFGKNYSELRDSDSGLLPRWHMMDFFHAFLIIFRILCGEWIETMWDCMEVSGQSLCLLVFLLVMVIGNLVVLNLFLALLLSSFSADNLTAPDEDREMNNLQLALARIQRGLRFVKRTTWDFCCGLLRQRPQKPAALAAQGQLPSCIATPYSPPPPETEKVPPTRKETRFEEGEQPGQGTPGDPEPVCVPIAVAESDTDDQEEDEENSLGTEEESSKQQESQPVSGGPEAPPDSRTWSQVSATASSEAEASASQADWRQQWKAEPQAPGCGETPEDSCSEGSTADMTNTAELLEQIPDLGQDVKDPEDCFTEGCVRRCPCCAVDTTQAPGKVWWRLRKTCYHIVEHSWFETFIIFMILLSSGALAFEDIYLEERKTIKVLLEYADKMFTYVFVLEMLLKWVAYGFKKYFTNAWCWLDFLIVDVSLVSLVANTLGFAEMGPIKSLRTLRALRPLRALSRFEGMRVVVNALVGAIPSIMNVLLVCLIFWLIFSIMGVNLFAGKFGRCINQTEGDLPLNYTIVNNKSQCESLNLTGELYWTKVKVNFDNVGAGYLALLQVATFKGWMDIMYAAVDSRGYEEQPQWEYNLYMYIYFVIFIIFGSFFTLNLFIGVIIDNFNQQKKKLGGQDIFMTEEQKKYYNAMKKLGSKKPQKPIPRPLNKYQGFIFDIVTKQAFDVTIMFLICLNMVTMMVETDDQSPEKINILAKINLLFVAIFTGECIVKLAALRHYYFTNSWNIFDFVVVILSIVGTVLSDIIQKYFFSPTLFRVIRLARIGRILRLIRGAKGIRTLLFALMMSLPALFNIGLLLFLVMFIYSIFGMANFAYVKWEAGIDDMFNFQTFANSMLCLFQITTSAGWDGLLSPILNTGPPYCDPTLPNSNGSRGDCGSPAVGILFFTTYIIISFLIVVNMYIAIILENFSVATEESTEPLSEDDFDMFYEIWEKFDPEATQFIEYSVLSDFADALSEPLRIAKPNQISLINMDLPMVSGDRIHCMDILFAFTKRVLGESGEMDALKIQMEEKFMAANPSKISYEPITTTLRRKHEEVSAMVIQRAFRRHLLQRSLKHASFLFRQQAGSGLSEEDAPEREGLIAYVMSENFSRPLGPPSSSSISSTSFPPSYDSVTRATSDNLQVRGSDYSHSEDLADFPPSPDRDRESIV

Structure (SMILES): COc1ccccc1SC[C@H](CN[C@@H]1COc2ccccc2SC1)OC(C)=O
- inhibition at 1 µM (Cardiac atrium [1]): 9%

Structure (SMILES): COc1ccccc1SC[C@H](CN[C@@H]1COc2ccccc2SC1)OC(=O)c1ccccc1
- inhibition at 1 µM (Cardiac atrium [1]): 3%

Structure (SMILES): CC[C@@H](CN[C@@H]1COc2ccccc2SC1)CSc1ccccc1OC
- inhibition at 10 µM [2]: 46%
- inhibition at 10 µM [3]: 54%
- inhibition (INH) (Heart): 68%
- inhibition at 1 µM (Cardiac atrium [1]): 86%

Structure (SMILES): COc1ccccc1SCC(CN[C@@H]1COc2ccccc2SC1)=C(C)C
- inhibition at 10 µM [2]: 31%
- inhibition at 10 µM [3]: 37%
- inhibition (INH) (Heart): 16%
- inhibition at 1 µM (Cardiac atrium [1]): 42%

Structure (SMILES): COc1ccccc1SC[C@@H](C)CN[C@@H]1COc2ccccc2SC1
- inhibition at 10 µM [2]: 53%
- inhibition at 10 µM [3]: 70%
- inhibition (INH) (Heart): 65%
- IC50 [4]: 2.56 µM
- IC50 [5]: 5.77 µM
- ED50 (Oryctolagus cuniculus [6]): 0.05 mg/kg
- ED50 (Oryctolagus cuniculus [7]): 0.13 mg/kg
- Ratio ED50 (Oryctolagus cuniculus [8]): 2.6
- Activity (Oryctolagus cuniculus [9]): 0.3 bpm
- Activity (Oryctolagus cuniculus [10]): -6.4 bpm
- Activity (Oryctolagus cuniculus [11]): -3.2 bpm
- Activity (Oryctolagus cuniculus [12]): -8.6 bpm
- Activity (Oryctolagus cuniculus [13]): -3.2 bpm
- inhibition at 1 µM (Cardiac atrium [1]): 74%

Structure (SMILES): COc1ccccc1SC[C@H](CN[C@@H]1COc2ccccc2SC1)C(C)C
- inhibition at 10 µM [2]: 31%
- inhibition at 10 µM [3]: 34%
- inhibition (INH) (Heart): 31%
- inhibition at 1 µM (Cardiac atrium [1]): 90%

Structure (SMILES): COc1ccccc1OCC(O)CN1CCN(CC(=O)Nc2c(C)cccc2C)CC1 (configuration not stated) [RANOLAZINE]
- inhibition at 10 µM [2]: 11%
- inhibition at 10 µM [3]: 19%
- ED50 (Oryctolagus cuniculus [6]): > 2.5 mg/kg

Structure (SMILES): COc1ccccc1SC[C@H](C)CN[C@H]1COc2ccccc2SC1
- inhibition at 10 µM [2]: 30%
- inhibition at 10 µM [3]: 44%
- inhibition at 1 µM (Cardiac atrium [1]): 26%

Structure (SMILES): COc1ccccc1SC[C@@H](O)CN[C@@H]1COc2ccccc2SC1
- inhibition at 10 µM [2]: 69%
- inhibition at 10 µM [3]: 75%
- inhibition (INH) (Heart): 14%
- inhibition at 1 µM (Cardiac atrium [1]): 54%

Structure (SMILES): COc1ccccc1SCCCN[C@@H]1COc2ccccc2SC1
- inhibition at 1 µM (Cardiac atrium [1]): 3%

Structure (SMILES): CCC[C@@H](CN[C@@H]1COc2ccccc2SC1)CSc1ccccc1OC
- inhibition at 10 µM [2]: 17%
- inhibition at 10 µM [3]: 23%
- inhibition at 1 µM (Cardiac atrium [1]): 23%

Structure (SMILES): COc1ccccc1SC[C@H](CN[C@@H]1COc2ccccc2SC1)OC
- inhibition at 10 µM [2]: 12%
- inhibition at 10 µM [3]: 27%
- inhibition (INH) (Heart): 64%
- inhibition at 1 µM (Cardiac atrium [1]): 45%

Structure (SMILES): COc1ccccc1SCC(O)CN[C@@H]1COc2ccccc2SC1 (mixture of isomers)
- inhibition at 10 µM [2]: 37%
- inhibition at 10 µM [3]: 42%
- inhibition at 1 µM (Cardiac atrium [1]): 50%

Structure (SMILES): COc1cc2c(cc1OC)CC(=O)N(CCCN(C)C[C@H]1Cc3cc(OC)c(OC)cc31)CC2 [IVABRADINE]
- ED50 (Oryctolagus cuniculus [6]): 0.59 mg/kg
- Activity (Oryctolagus cuniculus [9]): -3.4 bpm
- Activity (Oryctolagus cuniculus [10]): -20.7 bpm
- Activity (Oryctolagus cuniculus [11]): -69.4 bpm
- Activity (Oryctolagus cuniculus [12]): -112.6 bpm
- Activity (Oryctolagus cuniculus [14]): Active

Structure (SMILES): CCO[C@@H](CN[C@@H]1COc2ccccc2SC1)CSc1ccccc1OC
- inhibition at 10 µM [2]: 22%
- inhibition at 10 µM [3]: 34%
- inhibition (INH) (Heart): 33%
- inhibition at 1 µM (Cardiac atrium [1]): 46%

Structure (SMILES): CCCO[C@@H](CN[C@@H]1COc2ccccc2SC1)CSc1ccccc1OC
- inhibition at 10 µM [2]: 27%
- inhibition at 10 µM [3]: 27%
- inhibition at 1 µM (Cardiac atrium [1]): 30%

Structure (SMILES): C=C(CN[C@@H]1COc2ccccc2SC1)CSc1ccccc1OC
- inhibition at 10 µM [2]: 36%
- inhibition at 10 µM [3]: 37%
- inhibition at 1 µM (Cardiac atrium [1]): 26%

Structure (SMILES): COc1ccc(CCN(C)CCCOc2nsc(-c3ccccc3)n2)cc1OC
- inhibition at 10 µM [2]: 60%
- inhibition at 10 µM [3]: 60%
- inhibition (INH) (Heart): 39%
- inhibition at 1 µM (Cardiac atrium [1]): 45%

Structure (SMILES): COc1ccccc1SC[C@H](O)CN[C@@H]1COc2ccccc2SC1
- inhibition at 10 µM [2]: 26%
- inhibition at 10 µM [3]: 30%
- inhibition at 1 µM (Cardiac atrium [1]): 7%

Structure (SMILES): COc1ccccc1SCC(O)CN[C@H]1COc2ccccc2SC1 (mixture of isomers)
- inhibition at 10 µM [2]: 16%
- inhibition at 10 µM [3]: 21%
- inhibition at 1 µM (Cardiac atrium [1]): 26%

Structure (SMILES): NC1=N[C@H](O)[C@H]2[C@H]3O[C@]4(O)O[C@@H]([C@@H](O)[C@@]2(N1)[C@@H]4O)[C@]3(O)CO [TETRODOTOXIN]
- inhibition (INH) ([2]; human, hek293, 10 µM): 79%
- inhibition (INH) ([3]; human, hek293, 10 µM): 87%
- inhibition (Cardiac atrium [15]): 64%

Structure (SMILES): COc1ccccc1SC[C@H](C)CN[C@@H]1COc2ccccc2SC1
- inhibition at 10 µM [2]: 22%
- inhibition at 10 µM [3]: 34%
- inhibition at 1 µM (Cardiac atrium [1]): 38%

Structure (SMILES): COc1ccccc1SC[C@@H](F)CN[C@@H]1COc2ccccc2SC1
- inhibition at 10 µM [2]: 11%
- inhibition at 10 µM [3]: 19%
- inhibition at 1 µM (Cardiac atrium [1]): 32%

Structure (SMILES): COc1ccccc1SC[C@@H](C)CN[C@H]1COc2ccccc2SC1
- inhibition at 10 µM [2]: 31%
- inhibition at 10 µM [3]: 41%
- inhibition at 1 µM (Cardiac atrium [1]): 25%
